Columns and labels:
[1] = system: Rabbit kidney (RK-13) cells; assay: Toxicity to normal cells, rabbit kidney (RK-13) cells; format: cell-based; conditions: Oryctolagus cuniculus, normal, non-transformed cells, read-out: IC50 μM, RK Rabbit Kidney
Protocol: (§1) IC50 values were determined for each cell line. Cells were seeded in 96-well plates at an appropriate cell density as determined from growth kinetics analysis and cultured for 5 days in the absence and presence of the test compounds. Cell proliferation was assessed after the addition of 20 μl of 3-4,5 dimethylthiazol-2,5-diphenyl tetrazolium bromide (MTT, 2.5 mg/ml in PBS, Sigma) for 3-4 hrs at 37° C. according to manufacturer's instructions. IC50 values were calculated from semi-log plots of % of control proliferation on the y-axis against log dose on the x-axis.
(§2) The neonatal foreskin fibroblasts (NFF) were a gift from Dr. Peter Parsons (Queensland Institute of Medical Research). Rabbit kidney (RK-13) cells were obtained from Miller Whalley (Macquarie University). Both cell lines were cultured in RPMI supplemented with 10% FCS(CSL, Australia), penicillin (100 U/ml), streptomycin ([…]), L-glutamine (2 mM) and sodium bicarbonate (1.2 g/L), and cultured at 37° C. in a humidified atmosphere of 5% CO2. IC50 values were determined as described above.

[2] = system: HPAC; assay: Anti-cancer activity, HPAC pancreatic cancer cells (MTT); format: cell-based; conditions: Homo sapiens, 120 h, 5 days
[3] = system: neonatal foreskin fibroblasts (NFF); assay: Toxicity to normal cells, neonatal foreskin fibroblasts; format: cell-based; conditions: Fibroblast; normal, non-transformed cells; read-out: IC50 μM, NFF Fibroblast
Protocol: as §1, §2

[4] = system: CP70; assay: Anti-cancer activity, CP70 ovarian cancer cells (MTT); format: cell-based; conditions: 120 h, 5 days
[5] = Free radical scavenging with DPPH; conditions: DPPH, 20 minutes, absorbance 517 nm; Table 4; read-out: Free radical scavenging ability EC50
Summary of the method: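 Compounds reacted with DPPH in ethanol for 20 min, screened at 100 μM, and absorbance at 517 nm compared with a DPPH-ethanol blank. IC50 was taken as the concentration giving a 0.6 absorbance change, with 1.2 units representing total scavenging.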

[6] = system: TNFα synthesis in RAW 264.7 murine macrophages; assay: LPS-induced TNFα synthesis in RAW 264.7 murine macrophages; format: cell-based, mouse; conditions: 10 μM; relative to vehicle alone; FIG. 5
Protocol: The mouse macrophage cell line RAW 264.7 was cultured in DMEM supplemented with foetal calf serum (FCS), […] glutamine and 50 U/ml penicillin/streptomycin. Cells were treated with either test compound (in 0.025% DMSO) or vehicle alone, and added one hour before 50 ng/ml LPS. After incubation for 24 h, culture media was collected for PGE2 or TXB2 measurement by ELISA (Cayman Chemical), and TNFα measurement using an ELISA (Becton Dickinson). Test compounds were examined a concentration of 10 μM. […] Consequently, to assess the effect of test compounds on various analytes, cell viability was taken into consideration with the use of the formula: Actual effect of test compound=measured effect−(effect on cell viability×measured effect)

[7] = system: cancer cell lines; assay: Anti-cancer activity, cancer cell lines tested as a group (MTT); format: cell-based
[8] = system: human umbilical vein smooth muscle cells (HUVSMC); assay: Proliferation of human umbilical vein smooth muscle cells (MTT); format: cell-based; conditions: 10 μM; 10% FCS, 5 days; FIG. 8
Protocol: The effect of test compounds on human umbilical vein smooth muscle cells (HUVSMC) was examined. Cells were seeded into 96 well plates at a low seeding rate of 1.6×10^3 cells per well, and allowed to attach for 24 hours. The cells were then washed twice with medium without FCS and incubated in medium without FCS for 20 hours to serum starve them. Analogue was prepared in medium without FCS at 20 μM and added to the plates and incubated for one hour. Final analogue concentration was therefore 10 μM. The cells were then stimulated by adding medium +20% FCS, to give a final FCS concentration of 10%. The cells were incubated until the control cells i.e. those with FCS and no compound, were just confluent (5 days). An MTT assay was performed, and difference in absorbance in analogue treated cells from the control was calculated using the formula: test/control*100−100. Results
The effect of test compounds on human umbilical vein smooth muscle cells (HUVSMC), was examined. Cells, tissue explants from a neonate (HRI—passage 2), were seeded into 96 well plates at 1×10^3 cells per well, and allowed to attach for 24 hours. They were then washed twice and incubated in medium without foetal calf serum (FCS) for 24-48 hours to serum-starve them. Test compounds were prepared in medium without FCS and added to the plates and incubated for one hour. Medium with FCS was added to give a final concentration of 10% and the plates incubated for 4-5 days until the controls were just confluent.

[9] = system: MM200; assay: Anti-cancer activity, MM200 melanoma cells (MTT); format: cell-based; conditions: 120 h; 5 days, MTT
[10] = system: MDA-MB-468; assay: Anti-cancer activity, MDA-MB-468 breast cancer cells (MTT); format: cell-based; conditions: Homo sapiens, MDA-MB-468, 120 h, 5 days
[11] = system: NCI-H460; assay: Anti-cancer activity, NCI-H460 large cell lung cancer cells (MTT); format: cell-based; conditions: Homo sapiens, NCI-H460, 120 h, 5 days, read-out: IC50 μM, NCI-H460 Lung (NSCLC)
[12] = target: T1, GAL4-PPARγ fusion protein (Homo sapiens, UniProt P37231); assay: PPARγ activity in transfected HEK293 cells (beta-lactamase reporter); format: cell-based; conditions: FIG. 13: 1 μM
T1 construct: host or cells: HEK293 (human embryonic kidney), stably transfected
Summary of the method: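 HEK293 cells stably expressing GAL4-DBD/PPARγ-LBD fusion with beta-lactamase reporter, treated with compound at 1, 5 and 10 μM for 16-18 h. Beta-lactamase read via FRET substrate (2 h, room temperature), ex 409 nm, em 460/530 nm; background-subtracted emission ratio.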

[13] = system: HT29; assay: Anti-cancer activity, HT-29 colon adenocarcinoma cells (MTT); format: cell-based; conditions: Homo sapiens, HT-29, 120 h, 5 days, read-out: IC50 μM, HT29 Colorectal

T1 sequence (P37231 238-503 limits assumed): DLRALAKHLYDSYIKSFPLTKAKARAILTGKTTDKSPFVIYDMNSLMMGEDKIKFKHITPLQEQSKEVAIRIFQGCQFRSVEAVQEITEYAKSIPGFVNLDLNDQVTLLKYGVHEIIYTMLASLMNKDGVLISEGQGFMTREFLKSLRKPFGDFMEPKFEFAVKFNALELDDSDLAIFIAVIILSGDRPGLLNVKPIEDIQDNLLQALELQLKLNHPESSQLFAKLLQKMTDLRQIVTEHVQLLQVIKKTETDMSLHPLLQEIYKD
T1 sequence (P04386 1-147 partner limits assumed): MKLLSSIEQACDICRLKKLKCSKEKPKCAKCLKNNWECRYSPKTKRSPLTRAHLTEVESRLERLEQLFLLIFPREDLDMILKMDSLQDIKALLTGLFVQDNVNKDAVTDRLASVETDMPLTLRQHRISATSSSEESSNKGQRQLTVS

COCCCN1COc2cc3c(cc2C1)C=C(c1cccc(O)c1)CO3 [Compound 17, 3-(3-(3-Methoxypropyl)-2,3,4,8-tetrahydrochromeno[6,7-e][1,3]oxazin-7-yl)phenol]
IC50 [1]: 5.5 µM | IC50 [2]: 5.3 µM | IC50 [3]: 55.9 µM | IC50 [4]: 4.5 µM | EC50 [5]: 40 µM | mean change of LPS-induced TNFα synthesis [6]: greatest inhibition | activity against CP70, HPAC and MM200 cell lines ([7]; CP70, HPAC and MM200): active | IC50 ([7]; read-out: most potent activity against the respective cell lines tested): 1 to 5 µM | effect on proliferation of HUVSMCs induced by FCS [8]: significantly inhibited the proliferation | IC50 [9]: 2.3 µM

CCCN1COc2cc3c(cc2C1)C=C(c1ccc(O)cc1)C(CC)O3 (centres unmarked) [Compound 27, 4-(8-Ethyl-3-propyl-2,3,4,8-tetrahydrochromeno[6,7-e][1,3]oxazin-7-yl)phenol]
IC50 [1]: 14.5 ± 1 µM | IC50 [2]: 12.4 ± 4 µM | IC50 [10]: 14.9 ± 1 µM | IC50 [3]: 40.3 ± 1.2 µM | IC50 [11]: 17.8 ± 1.1 µM | PPARγ activation, increase in beta-lactamase activity over media only control [12]: PPARγ agonist activity | IC50 [4]: 10.9 ± 1.5 µM | EC50 [5]: 26 µM | IC50 [9]: 23.2 ± 1.1 µM | IC50 [13]: 50.8 ± 1 µM
